Laboratory results as given in PMC4350872, “The Inhibitory Effect of Kakkonto, Japanese Traditional (Kampo) Medicine, on Brain Penetration of Oseltamivir Carboxylate in Mice with Reduced Blood-Brain Barrier Function” (Evidence-based Complementary and Alternative Medicine : eCAM, 2015).
Read-outs that look alike come from different tables or passages of the source.

Columns and labels:
[1] = Plasma and cerebral concentrations of oseltamivir and OC after oral administration of OP; format: in vivo, C57BL/6 mice; details: OP 300 mg/kg p.o.; for AUC(0-t): C57BL/6, mouse, plasma, po, 300 mg/kg, read-out: AUC0–120 Plasma (converted); for mean brain-to-plasma ratio (BPR): mean AUCbrain / mean AUCplasma
Experimental: OP (300 mg/kg in 0.2 mL saline) was orally administered 4 h after the third injection of LPS. […] The brain tissue of mice was rapidly removed after the decapitation and rinsed in ice-cold PBS. Three to 9 mice were used at each sampling time point in each group.
Oseltamivir and OC levels in plasma and brain tissues were quantified by HPLC, as described in our previous study. Blood samples collected from the jugular vein were centrifuged to obtain plasma at 4°C (2,000 ×g, 15 min). Brain tissue samples were homogenized in 3.5 mL PBS/g tissue and centrifuged at 4°C (12,000 ×g, 10 min). Oseltamivir and OC were extracted from the resulting supernatant by solid-phase extraction (SPE) using Oasis MCX extraction cartridges (1 cc/30 mg, Waters, Milford, MA, USA) conditioned with 1 mL of methanol followed by 1 mL water. The supernatant sample (1 mL) was drawn through the cartridge and the cartridge was washed with 1 mL of 2% formic acid/water, followed by methanol and 0.005% ammonium hydroxide/methanol. The analytes were eluted with 3 mL of 5% ammonium hydroxide/methanol and evaporated to dryness under nitrogen at 40°C.
The HPLC system consisted of a pump (LC-10ADvp, Shimadzu Corp., Kyoto, Japan), degasser (DGU-12A, Shimadzu Corp.), column (Zorbax SB-CN 5 μm particle size, 4.6 × 250 mm, Agilent Technologies, CA, USA), column oven (CTO-10A, Shimadzu Corp.), and UV absorbance detector (SPD-10AV, Shimadzu Corp.). […] The column temperature was 50°C and the detector was operated at absorbance wavelength of 215 nm.

[2] = system: organic anion transporter (OAT) 3; set-up: method as in PMID 19029202; details: cited from earlier work
[3] = system: multidrug resistance protein (MRP) 4; set-up: method as in PMID 19029202; details: cited from earlier work
P-glycoprotein (P-gp) = system: P-glycoprotein (P-gp); set-up: method as in PMID 19029202; details: cited from earlier work
[4] = set-up: method as in PMID 23881998; details: FDA Adverse Event Reporting System 1999 to 2011; cited from earlier work
[5] = Kak group (LPS + kakkonto 125 mg/kg p.o.)
[6] = Mao group (LPS + maoto 125 mg/kg p.o.)

| SMILES | AUC(0-t) ([1]; Con group (LPS + saline p.o.)) | AUC(0-t) [1, 5] | AUC(0-t) [1, 6] | AUC0–120 Brain ([1]; Con group (LPS + saline p.o.)) | mean brain-to-plasma ratio (BPR) ([1]; Con group) | AUC0–120 Brain [1, 5] | mean brain-to-plasma ratio (BPR) ([1]; Kak group) | AUC0–120 Brain [1, 6] | mean brain-to-plasma ratio (BPR) ([1]; Mao group) | substrate for OAT3 [2] | substrate for MRP4 [3] | substrate for efflux transporter P-gp (P-glycoprotein (P-gp)) | odds ratio, abnormal behavior [4] | odds ratio, delirium [4] |
| --- | --- | --- | --- | --- | --- | --- | --- | --- | --- | --- | --- | --- | --- | --- |
| CCC(CC)O[C@@H]1C=C(C(=O)O)C[C@H](N)[C@H]1NC(C)=O [OC, oseltamivir carboxylate] | 12700 ng·h/mL | 20000 ng·h/mL | 14300 ng·h/mL | 16.06 min·μg/g brain | 21.08 μL/g brain | 5.98 min·μg/g brain | 4.98 μL/g brain | 18.95 min·μg/g brain | 22.12 μL/g brain | substrate | substrate |  |  |  |
| CCOC(=O)C1=C[C@@H](OC(CC)CC)[C@H](NC(C)=O)[C@@H](N)C1 [Oseltamivir, oseltamivir] | 32500 ng·h/mL | 84400 ng·h/mL | 62500 ng·h/mL | 79.35 min·μg/g brain | 40.70 μL/g brain | 200.21 min·μg/g brain | 39.52 μL/g brain | 119.92 min·μg/g brain | 31.98 μL/g brain |  |  | substrate |  |  |
| CCOC(=O)C1=C[C@@H](OC(CC)CC)[C@H](NC(C)=O)[C@@H](N)C1 [Tamiflu, Oseltamivir phosphate] |  |  |  |  |  |  |  |  |  |  |  |  | 29.35 | 13.50 |
